Laboratory results published in ChEMBL document CHEMBL1201862, “PubChem BioAssay data set” (2004).
Active and inactive are the calls of the source.

Tests used:
Cytochrome P450 1A2 = target: T1, Cytochrome P450 1A2 (Homo sapiens, UniProt P05177);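 also: PubChem cytochrome P450 panel assay, CYP1A2 panel member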
T1 sequence (P05177 whole entry): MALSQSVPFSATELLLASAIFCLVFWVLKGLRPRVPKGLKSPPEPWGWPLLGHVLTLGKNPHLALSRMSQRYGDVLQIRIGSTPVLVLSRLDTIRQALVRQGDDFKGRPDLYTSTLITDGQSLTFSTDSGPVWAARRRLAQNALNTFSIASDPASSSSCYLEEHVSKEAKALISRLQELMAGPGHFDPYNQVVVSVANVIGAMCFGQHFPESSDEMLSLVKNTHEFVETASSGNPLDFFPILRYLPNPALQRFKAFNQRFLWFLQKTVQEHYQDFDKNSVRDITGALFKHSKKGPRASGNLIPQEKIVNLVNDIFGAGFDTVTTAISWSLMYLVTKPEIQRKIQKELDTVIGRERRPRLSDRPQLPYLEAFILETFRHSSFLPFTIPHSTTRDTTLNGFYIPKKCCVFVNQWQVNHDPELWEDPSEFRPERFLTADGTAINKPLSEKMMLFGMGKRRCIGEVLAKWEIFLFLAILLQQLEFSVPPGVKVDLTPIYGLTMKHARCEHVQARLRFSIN

[1] = Luminescence Cell-Based Dose Confirmation HTS to Identify Inhibitors of Platelet Dense Granule Release. [Related pubchem assays: 1663 (Primary HTS), 1678 (Summary of Project)]; assay type: functional
[2] = target: Luciferin 4-monooxygenase (Photinus pyralis, UniProt P08659); assay: inhibition of purified Photinus pyralis luciferase – biochemical, luminescence, dose response (AID 1891)
cells = assay type: functional
Protein skinhead-1 = target: T2, Protein skinhead-1 (Caenorhabditis elegans, UniProt P34707); assay type: functional
T2 sequence (P34707 whole entry): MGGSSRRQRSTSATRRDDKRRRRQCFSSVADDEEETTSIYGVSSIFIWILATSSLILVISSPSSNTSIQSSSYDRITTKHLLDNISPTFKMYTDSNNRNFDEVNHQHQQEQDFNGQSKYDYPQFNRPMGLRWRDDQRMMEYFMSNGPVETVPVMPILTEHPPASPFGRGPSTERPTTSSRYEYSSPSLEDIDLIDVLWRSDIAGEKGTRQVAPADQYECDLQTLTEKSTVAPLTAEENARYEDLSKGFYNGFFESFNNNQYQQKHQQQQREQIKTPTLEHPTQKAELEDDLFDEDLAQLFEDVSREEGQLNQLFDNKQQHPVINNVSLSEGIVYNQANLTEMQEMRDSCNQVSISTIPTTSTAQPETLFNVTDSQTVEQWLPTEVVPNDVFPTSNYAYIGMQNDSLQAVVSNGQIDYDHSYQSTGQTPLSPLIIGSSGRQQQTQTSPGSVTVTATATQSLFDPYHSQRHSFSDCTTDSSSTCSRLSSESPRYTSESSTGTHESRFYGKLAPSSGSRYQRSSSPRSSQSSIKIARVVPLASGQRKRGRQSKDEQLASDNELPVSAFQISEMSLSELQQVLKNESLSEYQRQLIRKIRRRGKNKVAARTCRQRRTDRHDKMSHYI

[3] = viability of HCT116 lacking mutant beta-catenin – cell-based, human colon tumor, dose response (AID 1045); assay type: functional;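 also: HCT116 colon tumor cells with beta catenin knocked out; cells exposed to compound for 60 hours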
[4] = target: T3, Polyadenylate-binding protein 1 (Homo sapiens, UniProt P11940); assay: MLLE binding blockers, Cy5 peptide tracer – biochemical, fluorescence polarization, Cy5-PAM2 peptide, secondary, miRNA deadenylation inhibitor project, dose response (AID 602260); assay type: functional; conditions: read-out: IC50_Mean
[5] = viability of PTEN-deleted HCT116 cells – cell-based, HCT116 PTEN knockout, dose response (AID 1047); assay type: functional;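 also: HCT116 colon tumor cells with PTEN knocked out; cells exposed to compound for 60 hours before readout; potency for loss of cell viability measured by luminescence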
[6] = target: T3, Polyadenylate-binding protein 1; assay: MLLE domain peptide-binding blockers, IC50 – biochemical, fluorescence polarization, FITC-PAM2 peptide, dose response (AID 602259); assay type: functional; conditions: read-out: IC50_Mean
[7] = Luminescence Cell-Based Dose Confirmation HTS to Identify Activators of 5'UTR Stem-Loop Driven Alpha-Synuclein mRNA Translation in H4 Neuroglioblastoma Cells. [Related pubchem assays: 1829 (Project Summary), 1814 (Primary HTS)]; assay type: functional
H4 = assay: Luminescence Cell-Based Dose Response HTS to Identify Activators of 5'UTR Stem-Loop Driven Prion Protein mRNA Translation in H4 Neuroglioblastoma Cells. [Related pubchem assays: 1829 (Project Summary), 1814 (Primary HTS)]; assay type: functional; conditions: Homo sapiens
[8] = Luminescence Cell-Based Dose Response HTS to Identify Activators of Luciferase Translation or Activity in H4 […] Cells. [Related pubchem assays: 1829 (Project Summary), 1814 (Primary HTS)]; assay type: functional
[9] = HIV-1 AD8 envelope cell-cell fusion blockers – cherry-pick, dose response (AID 652062); assay type: functional, cell-based;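 also: luciferase signal from cell-cell fusion driven by HIV-1 clade B AD8 Env; potency is for inhibitors of fusion seen as a drop in luminescence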
[10] = Trypanosoma cruzi growth suppression in host cells – NIH3T3 host cells, beta-gal luminescence, confirmation (AID 2044); assay type: functional, cell-based;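 also: intracellular parasites grown in NIH/3T3 mouse fibroblasts as host cells; luminescent beta-galactosidase reporter signal from transgenic T. cruzi replicating inside host cells; inhibitors lower the luminescence signal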
[11] = NIH3T3 cell viability loss – ATP luminescence, mouse fibroblasts, counter-screen, dose response (AID 2010); assay type: functional, cell-based;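 also: cells exposed to compound for about 90 hours before reading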
Cytochrome P450 2C19 = Cytochrome P450 2C19 (Homo sapiens, UniProt P33261); assay: Cytochrome panel assay with activity outcomes. Panel member name: p450-cyp2c19 Compounds with AC50 equal or less than 10 uM are considered active; assay type: functional
[12] = target: T4, Heat shock factor protein 1 (Mus musculus, UniProt P38532); assay: enhancement of HSF1-driven luciferase signal – cell-based, NIH3T3, luminescence, dose retest, confirmation (AID 435004); assay type: functional;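 also: stress induced by proteasome inhibitor MG132 added 30 min after compound; luciferase reporter driven by HSF1 response element in NIH3T3 cells; actives raise luminescence as potentiators of the MG132 stress response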
T4 sequence (P38532 whole entry): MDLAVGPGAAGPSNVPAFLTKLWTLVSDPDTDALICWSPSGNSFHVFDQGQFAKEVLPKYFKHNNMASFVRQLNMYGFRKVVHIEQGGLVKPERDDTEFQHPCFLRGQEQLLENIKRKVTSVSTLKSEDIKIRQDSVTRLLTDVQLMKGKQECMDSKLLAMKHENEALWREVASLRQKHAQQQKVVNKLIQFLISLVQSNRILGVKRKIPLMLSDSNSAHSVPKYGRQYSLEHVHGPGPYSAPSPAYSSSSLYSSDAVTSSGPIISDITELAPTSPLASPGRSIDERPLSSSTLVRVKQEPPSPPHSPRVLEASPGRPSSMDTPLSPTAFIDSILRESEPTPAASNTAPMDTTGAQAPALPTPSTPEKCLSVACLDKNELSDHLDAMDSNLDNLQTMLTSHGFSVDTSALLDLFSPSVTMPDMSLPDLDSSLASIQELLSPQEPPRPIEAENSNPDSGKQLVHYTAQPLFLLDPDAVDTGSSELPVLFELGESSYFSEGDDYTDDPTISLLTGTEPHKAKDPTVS

Cytochrome P450 2D6 = Cytochrome P450 2D6 (Homo sapiens, UniProt P10635);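 also: CYP2D6 member of a cytochrome P450 panel assay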
Cytochrome P450 3A4 = Cytochrome P450 3A4 (Homo sapiens, UniProt P08684);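 also: CYP3A4 tested as one member of a cytochrome P450 panel screen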
Cytochrome P450 2C9 = Cytochrome P450 2C9 (Homo sapiens, UniProt P11712)
[13] = Luminescence Cell-Based Dose Response HTS to Identify Inhibitors of 5'UTR Stem-Loop Driven Prion Protein mRNA Translation in H4 Neuroglioblastoma Cells. [Related pubchem assays: 1827 (Project Summary), 1813 (Primary HTS)]; assay type: functional
[14] = luciferase reporter signal suppression in cells – H4 neuroglioma cells, luminescence, dose response (AID 1990); assay type: functional, cell-based
[15] = alpha-synuclein stem-loop luciferase translation blockers – H4 neuroglioma cells, luminescence, confirmation (AID 1988); assay type: functional, cell-based

Chain of Luciferin 4-monooxygenase (P08659 whole entry): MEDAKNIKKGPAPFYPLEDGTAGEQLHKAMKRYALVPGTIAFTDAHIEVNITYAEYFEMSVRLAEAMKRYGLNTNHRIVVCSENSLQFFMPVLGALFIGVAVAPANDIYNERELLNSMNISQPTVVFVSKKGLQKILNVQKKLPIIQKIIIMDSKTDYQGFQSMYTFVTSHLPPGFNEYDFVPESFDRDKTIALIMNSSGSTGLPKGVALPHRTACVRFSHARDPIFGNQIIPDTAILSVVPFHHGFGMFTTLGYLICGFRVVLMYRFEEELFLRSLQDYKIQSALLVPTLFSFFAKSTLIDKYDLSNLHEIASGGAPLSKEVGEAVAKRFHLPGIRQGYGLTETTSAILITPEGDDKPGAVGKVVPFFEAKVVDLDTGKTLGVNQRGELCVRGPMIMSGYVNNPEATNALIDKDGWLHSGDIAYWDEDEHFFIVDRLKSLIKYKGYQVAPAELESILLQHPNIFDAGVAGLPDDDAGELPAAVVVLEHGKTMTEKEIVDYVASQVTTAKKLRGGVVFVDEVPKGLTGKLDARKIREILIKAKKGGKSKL
Chain of Cytochrome P450 2C19 (P33261 whole entry): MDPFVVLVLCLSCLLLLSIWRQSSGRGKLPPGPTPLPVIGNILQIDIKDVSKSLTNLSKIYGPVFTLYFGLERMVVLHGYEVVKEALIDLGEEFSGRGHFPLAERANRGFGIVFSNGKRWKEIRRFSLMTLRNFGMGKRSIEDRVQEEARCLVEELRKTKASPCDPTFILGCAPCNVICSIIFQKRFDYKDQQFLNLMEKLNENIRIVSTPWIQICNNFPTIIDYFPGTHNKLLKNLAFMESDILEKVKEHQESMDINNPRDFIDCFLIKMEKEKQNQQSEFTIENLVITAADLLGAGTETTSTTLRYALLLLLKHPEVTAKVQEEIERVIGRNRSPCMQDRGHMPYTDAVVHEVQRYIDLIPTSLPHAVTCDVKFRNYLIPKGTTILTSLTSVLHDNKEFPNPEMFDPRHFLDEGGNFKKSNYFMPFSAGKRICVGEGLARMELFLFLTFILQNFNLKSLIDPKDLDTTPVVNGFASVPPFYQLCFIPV
Chain of Cytochrome P450 2C9 (P11712 whole entry): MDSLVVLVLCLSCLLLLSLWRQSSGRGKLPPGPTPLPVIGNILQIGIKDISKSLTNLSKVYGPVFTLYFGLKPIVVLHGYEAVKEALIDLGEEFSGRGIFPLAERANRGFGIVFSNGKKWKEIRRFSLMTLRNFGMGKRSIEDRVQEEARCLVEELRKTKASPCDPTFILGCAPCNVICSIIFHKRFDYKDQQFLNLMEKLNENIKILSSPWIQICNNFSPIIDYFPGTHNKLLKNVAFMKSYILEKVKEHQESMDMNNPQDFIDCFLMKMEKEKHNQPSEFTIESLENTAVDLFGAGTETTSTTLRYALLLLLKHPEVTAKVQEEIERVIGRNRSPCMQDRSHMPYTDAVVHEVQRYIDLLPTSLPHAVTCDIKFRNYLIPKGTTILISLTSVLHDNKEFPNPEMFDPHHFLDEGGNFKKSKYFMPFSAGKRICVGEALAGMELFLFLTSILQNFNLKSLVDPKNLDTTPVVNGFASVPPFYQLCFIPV
Chain of Cytochrome P450 2D6 (P10635 whole entry): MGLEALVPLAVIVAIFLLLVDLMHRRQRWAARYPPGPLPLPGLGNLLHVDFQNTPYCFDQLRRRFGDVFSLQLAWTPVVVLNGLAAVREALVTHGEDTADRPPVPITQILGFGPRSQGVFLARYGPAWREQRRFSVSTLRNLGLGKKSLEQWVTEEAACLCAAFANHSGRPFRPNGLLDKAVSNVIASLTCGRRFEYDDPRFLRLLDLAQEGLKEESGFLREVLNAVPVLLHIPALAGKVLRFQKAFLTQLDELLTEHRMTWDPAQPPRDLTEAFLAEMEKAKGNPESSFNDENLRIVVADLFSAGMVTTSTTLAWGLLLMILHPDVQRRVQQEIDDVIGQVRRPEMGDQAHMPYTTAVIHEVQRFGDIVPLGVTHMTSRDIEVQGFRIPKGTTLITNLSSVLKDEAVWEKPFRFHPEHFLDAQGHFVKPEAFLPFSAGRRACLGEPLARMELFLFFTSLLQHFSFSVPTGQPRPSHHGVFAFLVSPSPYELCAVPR
T3 sequence (P11940 whole entry): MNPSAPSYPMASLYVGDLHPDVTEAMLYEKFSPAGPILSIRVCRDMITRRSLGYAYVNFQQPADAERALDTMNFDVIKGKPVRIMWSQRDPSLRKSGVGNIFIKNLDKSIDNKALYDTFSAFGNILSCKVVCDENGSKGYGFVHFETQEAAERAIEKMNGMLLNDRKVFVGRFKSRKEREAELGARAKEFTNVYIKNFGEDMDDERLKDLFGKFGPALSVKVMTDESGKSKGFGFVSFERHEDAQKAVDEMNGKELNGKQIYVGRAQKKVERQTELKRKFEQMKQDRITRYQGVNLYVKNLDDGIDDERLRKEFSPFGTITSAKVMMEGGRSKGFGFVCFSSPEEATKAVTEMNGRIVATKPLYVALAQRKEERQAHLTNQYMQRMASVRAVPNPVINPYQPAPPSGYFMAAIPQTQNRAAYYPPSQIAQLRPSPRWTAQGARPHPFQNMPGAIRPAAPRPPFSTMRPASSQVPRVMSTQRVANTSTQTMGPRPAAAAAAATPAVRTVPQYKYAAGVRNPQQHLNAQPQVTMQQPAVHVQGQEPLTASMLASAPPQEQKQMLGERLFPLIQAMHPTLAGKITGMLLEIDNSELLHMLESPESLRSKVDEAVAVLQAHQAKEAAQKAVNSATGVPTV
Chain of Cytochrome P450 3A4 (P08684 whole entry): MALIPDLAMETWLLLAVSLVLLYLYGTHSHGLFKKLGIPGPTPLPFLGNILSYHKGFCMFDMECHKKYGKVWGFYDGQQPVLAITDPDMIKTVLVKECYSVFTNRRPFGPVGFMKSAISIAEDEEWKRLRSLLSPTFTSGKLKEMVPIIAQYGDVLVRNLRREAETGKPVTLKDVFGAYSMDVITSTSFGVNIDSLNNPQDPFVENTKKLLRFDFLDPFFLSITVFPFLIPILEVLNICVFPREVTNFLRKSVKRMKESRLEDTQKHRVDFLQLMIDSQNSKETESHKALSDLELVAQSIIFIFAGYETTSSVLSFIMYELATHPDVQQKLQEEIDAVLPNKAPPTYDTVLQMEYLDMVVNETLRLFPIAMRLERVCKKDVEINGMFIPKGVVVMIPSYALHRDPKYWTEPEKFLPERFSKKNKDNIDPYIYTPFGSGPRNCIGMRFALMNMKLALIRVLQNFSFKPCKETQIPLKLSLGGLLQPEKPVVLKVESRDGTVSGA

## O=C(CCNC(=O)Cn1cnc2ccccc2c1=O)NCC1COc2ccccc2O1 (stereo unspecified)
Cytochrome P450 1A2
  AC50: 0.01 µM (inconclusive)

## CCOC(=O)C1=C(C)N(c2ccc(C)cc2)C(=O)/C1=C\c1ccc(O)c(OC)c1
[1]
  EC50: > 112 µM (not active)
[2]
  EC50: > 112 µM (not active)

## CCCSc1cc(NCCOC(C)=O)c([N+](=O)[O-])c2nonc12
[1]
  EC50: > 112 µM (not active)
[2]
  EC50: > 112 µM (not active)

## CC(C)c1nnc(NC(=O)c2cc3cc(Br)ccc3oc2=O)s1
cells
  IC50: 0.66 µM (active)

## CSc1cccc(NC(=O)c2cc(S(=O)(=O)N3CCCC3)cn2C)c1
[1]
  EC50: > 112 µM (not active)
[2]
  EC50: > 112 µM (not active)

## FC(F)(F)c1cc(-c2ccccc2)nc(NC2CCCC2)n1
Protein skinhead-1
  IC50: > 100 µM (inactive)

## O=C(Cc1cccc2ccccc12)NC(NC(=S)Nc1ccccc1Cl)C(Cl)(Cl)Cl (stereo unspecified)
[3]
  EC50: 16.7 µM (active)
[4]
  IC50: > 66 µM (inactive)
[5]
  EC50: 15.2 µM (active)
[6]
  IC50: > 66 µM (inactive)

## CCc1ccc2nc(O)c(CN(Cc3nnnn3C3CCCC3)C3CCCCC3)cc2c1
[7]
  EC50: > 120 µM (not active)
H4
  EC50: > 120 µM (not active)
[3]
  EC50: 19.7 µM (active)
[8]
  EC50: > 120 µM (not active)
[5]
  EC50: 18.8 µM (active)

## CCOC(=O)c1ccc(NC(=O)c2cccc(S(=O)(=O)N3CCOCC3)c2)cc1
[3]
  EC50: 22 µM (active)
[5]
  EC50: 30.4 µM (active)

## O=C1[C@@H]2Cc3c([nH]c4ccccc34)[C@@H](c3ccccc3)N2C(=O)[C@@H]2Cc3c([nH]c4ccccc34)[C@@H](c3ccccc3)N12
[3]
  EC50: 9.96 µM (active)
[5]
  EC50: 9.58 µM (active)

## Cc1ccc(-c2nc(=S)c3c(n2CCN2CCOCC2)CC(C)(C)OC3)cc1
Protein skinhead-1
  IC50: > 100 µM (inactive)

## CC(=O)NC(CCS(C)(=O)=O)C(=O)Nc1cc(C)on1 (stereo unspecified)
[1]
  EC50: > 112 µM (not active)
[2]
  EC50: > 112 µM (not active)

## COC(=O)c1ccc(NC(=O)c2ccc(CN3CCOCC3)cc2)cc1
[9]
  AC50: 43.4 µM (active)

## COc1ccc2[nH]cc(CCNc3ncnc4ccc(-c5ccccc5CN(C)C)cc34)c2c1
Cytochrome P450 1A2
  AC50: 31.6 µM (inconclusive)

## COC(=O)[C@H](C)[C@H]1C[C@]1(C)[C@H](NC(=O)OCc1ccccc1)c1ccccc1
Cytochrome P450 1A2
  AC50: 15.8 µM (inconclusive)

## O=[N+]([O-])c1cc(CN2CCCC2)ccc1Sc1ccc(Cl)cc1
[10]
  EC50: 0.232 µM (active)
Protein skinhead-1
  IC50: 17.9 µM (active)
[11]
  EC50: 9.06 µM (active)

## O=C(CN1CCN(S(=O)(=O)c2ccc(Br)cc2)CC1)Nc1ccc2c(c1)OCO2
Protein skinhead-1
  IC50: > 100 µM (inactive)

## O=C(Nc1ccc(Cl)cc1)c1cnc(-c2ccccc2)nc1-c1ccccc1
[3]
  EC50: 6.45 µM (active)
Cytochrome P450 2C19; read-out: AC50
  AC50: 1 µM (inconclusive)
[5]
  EC50: 7.19 µM (active)

## SC1=Nc2ccc(Cl)cc2C(c2ccccc2)=NC1
[12]
  EC50: > 260 µM (inactive)
cells
  IC50: > 50 µM (active)

## COC(=O)[C@@]1(Cc2ccc(F)cc2)[C@H]2c3cc(C(=O)N(C)C)n(CCc4c[nH]c5ccc(OC)cc45)c3C[C@H]2CN1C(=O)c1ccccc1
Cytochrome P450 2C19; read-out: AC50
  AC50: 39.8 µM (inconclusive)
Cytochrome P450 1A2
  AC50: 12.6 µM (inconclusive)

## c1ccc(-c2nc3c4ccccc4ccn3c2CN2CCCCC2)cc1
[1]
  EC50: > 112 µM (not active)
[2]
  EC50: 14.8 µM (active)

## CCC(c1nnnn1CC1CCCO1)N(CCN1CCOCC1)Cc1cc2cc(C)ccc2nc1O (stereo unspecified)
Cytochrome P450 1A2
  AC50: 25.1 µM (inconclusive)

## COc1cccc(Cn2c(=O)c(-c3cn(C)c4ccccc34)nc3cnc(N4CCNCC4)nc32)c1
Cytochrome P450 2D6
  AC50: 39.8 µM (inconclusive)
Cytochrome P450 3A4
  AC50: 15.8 µM (inconclusive)
Cytochrome P450 1A2
  AC50: 15.8 µM (inconclusive)

## CN(C)C(=O)c1ccc(-c2nc(NCc3cccnc3)c3ccccc3n2)cc1
Cytochrome P450 2D6
  AC50: 39.8 µM (inconclusive)
Cytochrome P450 1A2
  AC50: 10 µM (inconclusive)

## O=C(NCC1CCCO1)c1ccc(NC(=O)c2cccc(Cl)c2)cc1 (stereo unspecified)
[1]
  EC50: > 112 µM (not active)
[2]
  EC50: > 112 µM (not active)

## Cc1c(C(=O)N2CCCCCC2)nnn1-c1nonc1N
Cytochrome P450 2D6
  AC50: 17.8 µM (inconclusive)
Cytochrome P450 2C9
  AC50: 14.1 µM (inconclusive)
Cytochrome P450 1A2
  AC50: 15.8 µM (inconclusive)

## Clc1ccc2oc(-c3ccccn3)nc2c1
Protein skinhead-1
  IC50: 35.9 µM (active)

## C(=C1c2ccccc2-c2ccccc21)c1ccccn1
Protein skinhead-1
  IC50: 59.4 µM (inactive)

## Oc1ccccc1CN1CCCC(N2CCN(c3cccc(C(F)(F)F)c3)CC2)C1 (stereo unspecified)
cells
  IC50: 22.9 µM (active)

## CC#CCCCC(=O)Nc1ccc(C(=O)O)cc1
Cytochrome P450 2C19
  AC50: inconclusive
Cytochrome P450 2C9
  AC50: 39.8 µM (inconclusive)
Cytochrome P450 1A2
  AC50: 28.2 µM (inconclusive)

## O=C(Nc1ccccc1F)C1CCCC1
Protein skinhead-1
  IC50: > 100 µM (inactive)

## C[C@@H]1CN([C@@H](C)CO)C(=O)c2cc(C3=CCCC3)cnc2O[C@@H]1CN(C)Cc1ccc(C(=O)O)cc1
[9]
  AC50: 10.9 µM (active)

## OCC/N=C1\CCCc2c1[nH]c1ccc(Br)cc21
Cytochrome P450 2D6
  AC50: 1 µM (inconclusive)
Cytochrome P450 2C9
  AC50: 7.08 µM (inconclusive)
[13]
  EC50: 48.8 µM (active)
Cytochrome P450 1A2
  AC50: 0.251 µM (inconclusive)
[14]
  EC50: < 0.1 µM (active)
[15]
  EC50: 8.41 µM (active)

## COc1cccc(C(=O)N/N=C/c2c[nH]nc2-c2ccc(OC)cc2OC)c1
[1]
  EC50: > 112 µM (not active)
[2]
  EC50: > 112 µM (not active)

## CC1(C)CCC(C)(C)c2cc(C(=O)Nc3ccc(C(=O)O)cc3)ccc21
Cytochrome P450 2C19; read-out: AC50
  AC50: 31.6 µM (inconclusive)
Cytochrome P450 2C9
  AC50: 15.8 µM (inconclusive)
Cytochrome P450 1A2
  AC50: 31.6 µM (inconclusive)
